Source: patent US20190255144A1, “SPECIFIC OLIGOPEPTIDES AS ANTI-ANGIOGENIC DRUGS” (NEURONAX, priority 2014, published 2019)
Several values for one entry are separate records, joined by “and”; a condition that tells them apart may be missing. Equal values may be shown once. Entries after “also recorded” stand apart in the source; their conditions may differ.

Key:
[1] = tested on: tumors obtained from U87-MG grafts on the CAM; assay: Experimental tumors from U87-MG grafts on the CAM: vascularization, Ki-67, vimentin; format: in vivo, chicken embryo; details: for Tumor vascularization, density of the vessels that irrigate the tumor (in words): topical 250 μg/mL; for Quantification of the Ki-67 labeling, Center 1 / Quantification of the Ki-67 labeling, Center 2 / Quantification of the Ki-67 labeling, Edge 1 / Quantification of the Ki-67 labeling, Edge 2: treated 48 hours; for Quantification of the Ki-67 labeling, Center 1 / Quantification of the Ki-67 labeling, Center 2: tumor center; for Quantification of the Ki-67 labeling, Edge 1 / Quantification of the Ki-67 labeling, Edge 2: tumor edge
Method: To obtain a tumor, the U87-MG cells are inoculated at a rate of 200,000 cells in 75-cm^2 flasks in the presence of a basal medium. A volume that contains 4.10^6 cells is then sampled, and after centrifuging for 5 minutes with 311 g, the supernatant is eliminated, and the cells are resuspended in 20 μL of differential medium that is deposited in the center of a silicone ring that was previously applied on the CAM of an embryo at ED9. Once the grafting is done, the embryo is set out to incubate. At ED11, the tumors can be observed under a MZFL3 binocular (Leica, Paris, France). At this stage, the tumors are either treated topically (apical part of the tumor) by 30 μL of the oligopeptide according to the invention at 250 μg/mL or else by 30 μL of sterile distilled water up to stage ED13. The tumors are then sampled, and cryosections are produced to make possible immunohistochemical analyses. […] The macroscopic observations of tumors as well as the diffusion of fluorescein into the vessels are made with a fluorescence binocular (MZFL3, Leica, France).
A volume that contains 4.10^6 cells is then sampled and after centrifuging for 5 minutes with 300 g, the supernatant is eliminated, and the cells are resuspended in 20 μL of differential medium that is deposited in the center of a silicone ring that was previously applied on the CAM of an embryo at ED9. Once the grafting has been done, the embryo is set out to incubate.
At ED11, the tumors can be observed under a MZFL3 binocular (Leica, Paris, France), and it is possible to track the change in the tumor growth up to ED14.
The tumors that are developed on the CAM are observed on the chorioallantoic membrane using a MZFL3-type binocular (Leica, France) before being sampled.
The vascular endothelium of the vessels of a chicken is labeled using a lectin, SNA-1 (Sambuccus Nigra Agglutinin-1, Vector Laboratories), coupled to FITC (fluorescein isothiocyanate).
After 10 minutes of attachment with 200 μL of 4% PBS 1X-PFA at ambient temperature, the sections are incubated with a solution of 0.05% TBS 1X-Tween-0.1% Trypsin, pH 7.6, for 10 minutes. They are then washed 3 times in PBS 1X, and 100 μL of a dilution with 1/200th of the SNA-1 lectin in a solution of 0.05% TBS 1X-Tween with pH 7.6 is applied for 1 hour. After washing cycles (the last of which is carried out with distilled water), the slides are then mounted as described in the preceding paragraph and observed with a fluorescence microscope. Counts of vessels were made from photos with a magnification ×100 and in a marginal zone spreading 600 μm from the edge of the tumor. An ANOVA-type statistical test was then carried out to validate the relevance of the effect observed. The SNA-1 lectin specifically labels the chicken endothelial cells that constitute the vascular wall.
The tumors are attached in 4% PBS 1X-PFA (24 hours) and then dehydrated in absolute ethanol and then in pure toluene and next are enclosed and preserved in a paraffin block. 4-μm sections are made from a microtome and deposited on Superfrost plus slides, and then dried in an oven at 50° C. for one night.
To carry out the immunolabeling, the sections are dewaxed and then rehydrated by baths of decreasing concentrations of ethanol and then rinsed in PBS 1X.
So as to unmask the antigenic sites, the slides are incubated in a citrate buffer with pH 7 (200 μM of citric acid; 9.8 mmol of sodium citrate) and undergo a heating cycle (4×5 minutes at 750 W in the microwave). The endogenic peroxidases are inhibited by carrying out a 10-minute bath in methanol-5%H2O2. After 3 washing cycles, the saturation of PBS-3% BSA and then the incubation with the anti-Ki67 antibody are carried out. After rinsing with PBS 1X, an HRP-conjugated secondary antibody is applied for 1 hour at ambient temperature. […] A counter-staining is carried out in hematoxylin, and the sections are mounted in an aqueous solution before being observed with a Leica DMRX microscope.

[2] = tested on: genes in experimental tumors obtained from the CAM; assay: Quantitative analysis of the mRNA in experimental tumors obtained from CAM; format: in vivo, chicken; details: for Mean RQ ANGPT1 / Mean RQ ANGPT2 / Mean RQ CD36 / Mean RQ FGF2 / Mean RQ ITGB1 / Mean RQ KDR / Mean RQ PDGFB / Mean RQ PDGFRB / Mean RQ PLAU / Mean RQ TEK / Mean RQ TIE-1 / Mean RQ TIMP1 / Mean RQ TIMP4 / Mean RQ VEGFA: CAM tumors, relative expression, control = 1, triplicate; for Increase of expression of genes coding for the receptors (ITGB1, PDGFRβ, KDR, TIE-1, TIE-2, CD36) in relation to the control: experimental tumors obtained from the CAM
From the text: These receptors belong to the chicken species and are therefore found in the host vessels. […] Furthermore, the overexpression of ITGB1 at the same time as that of CD36 differentiates the peptide according to the invention (NX) from the TSP-1 (TSP).

[3] = tested on: HBMECs; assay: Migration of endothelial cells; format: cell-based
[4] = U87-MG tumor on CAM, listed as TSP1

Substance	Mean RQ ANGPT1 [2]	Mean RQ ANGPT2 [2]	Mean RQ CD36 [2]	Mean RQ FGF2 [2]	Mean RQ ITGB1 [2]	Mean RQ KDR [2]	Mean RQ PDGFB [2]	Mean RQ PDGFRB [2]	Mean RQ PLAU [2]	Mean RQ TEK [2]	Mean RQ TIE-1 [2]	Mean RQ TIMP1 [2]	Mean RQ TIMP4 [2]	Mean RQ VEGFA [2]	Increase of expression of genes coding for the receptors (ITGB1, PDGFRβ, KDR, TIE-1, TIE-2, CD36) in relation to the control [2]	also measured
—W—S-G-W—S—S—C—S—R—S—C-G- (WSGWSSCSRSCG; Oligopeptide derived from SCO-Spondin) [NX]	0.8241	0.6787	3.831	0.686	4.07	4.207	2.104	4.366	1.151	4.539	3.961	1.237	0.6552	1.298	4 factor	Time to disappearance of pinkish color (capillaries on the surface of the tumor) ([1]; CAM tumors 1 to 2 mm in diameter): ≤ 24 h; SNA-1 labeling of vessels on tumor sections ([1]; U87-MG tumor on CAM): the SNA-1 labeling disappears more specifically into the zone that is close to the surface of the tumor; Tumor vascularization, density of the vessels that irrigate the tumor (in words) ([1]; U87-MG tumor on CAM, listed as oligopeptide according to the invention): more effective than the TSP-1; also recorded: significant reduction in the density of the vessels that irrigate the tumor; Quantification of the Ki-67 labeling, Center 1 ([1]; U87-MG tumor on CAM): 355.5 and 369; Quantification of the Ki-67 labeling, Center 2 ([1]; U87-MG tumor on CAM): 383.5 and 370; Quantification of the Ki-67 labeling, Edge 1 ([1]; U87-MG tumor on CAM): 165 and 184; Quantification of the Ki-67 labeling, Edge 2 ([1]; U87-MG tumor on CAM): 172 and 153; Tumor cells expressing the vimentin ([1]; U87-MG tumor on CAM, vimentin/SNA-1 co-labeling): reduction in the number of differentiated tumor cells expressing the vimentin; Ki-67 labeling of tumor (in words) ([1]; tumors in the CAM model, peripheral zone): the peripheral zone does not express the Ki67 marker; Migration of the HBMECs induced by glioblastoma tumor cells ([3]; brought into contact with the U87-MG or HBMECs): inhibits; Migration in the presence of an angiogenic factor ([3]; in the presence of VEGF or bFGF): promotes the migration
thrombospondin 1 [TSP, reference compound]	0.5106	0.2678	2.965	0.3429	1.317	1.557	0.6327	2.544	1.491	1.385	1.79	0.4492	0.6642	0.5392	on a lesser scale	Tumor vascularization, density of the vessels that irrigate the tumor (in words) ([1]; U87-MG tumor on CAM): produces the same effects but to a lesser degree; Quantification of the Ki-67 labeling, Center 1 [1, 4]: 300 and 233; Quantification of the Ki-67 labeling, Center 2 [1, 4]: 292 and 350; Quantification of the Ki-67 labeling, Edge 1 [1, 4]: 227 and 286; Quantification of the Ki-67 labeling, Edge 2 [1, 4]: 314 and 228
